Where two headings read alike, the source gives them in different places.
How the values were obtained:
MCF7 cells = assay: In vitro cell proliferation assays (Examples 902 and 903), MCF7; type: cell-based; settings: read-out: ER-alpha MCF7 HCS (EC50)
Method: Efficacy of estrogen receptor modulator compounds and chemotherapeutic compounds are measured by a cell proliferation assay employing the following protocol (Mendoza et al (2002) Cancer Res. 62:5485-5488).
The CellTiter-Glo® Luminescent Cell Viability Assay is a homogeneous method to determine the number of viable cells in culture based on quantitation of the ATP present, which signals the presence of metabolically active cells. The CellTiter-Glo® Assay is designed for use with multiwell plate formats, making it ideal for automated high-throughput screening (HTS), cell proliferation and cytotoxicity assays. The homogeneous assay procedure involves adding a single reagent (CellTiter-Glo® Reagent) directly to cells cultured in serum-supplemented medium. Cell washing, removal of medium or multiple pipetting steps are not required. The Cell Titer-Glo® Luminescent Cell Viability Assay, including reagents and protocol are commercially available (Promega Corp., Madison, Wis., Technical Bulletin TB288).
The assay assesses the ability of compounds to enter cells and inhibit cell proliferation. The assay principle is based on the determination of the number of viable cells present by quantitating the ATP present in a homogenous assay where addition of the Cell TiterGlo® reagent results in cell lysis and generation of a luminescent signal through the luciferase reaction. The luminescent signal is proportional to the amount of ATP present.
Procedure: Day 1—Seed Cell Plates (384-well black, clear bottom, microclear, TC plates with lid from Falcon #353962), Harvest cells, Seed cells at 1000 cells per 54 μl per well into 384 well Cell Plates for 3 days assay. Cell Culture Medium: RPMI or DMEM high glucose, 10% Fetal Bovine Serum, 2 mM L-Glutamine, P/S. Incubate 0/N (overnight) at 37° C., 5% CO2.
Day 2—Add Drug to Cells, Compound Dilution, DMSO Plates (serial 1:2 for 9 points). Add 20 μl of compound at 10 mM in the 2nd column of 96 well plate. Perform serial 1:2 across the plate (10 μl+20 μl 100% DMSO) for a total of 9 points using Precision Media Plates 96-well conical bottom polypropylene plates from Nunc (cat.#249946) (1:50 dilution). Add 147 μl of Media into all wells. Transfer 3 μl of DMSO+compound from each well in the DMSO Plate to each corresponding well on Media Plate using Rapidplate® (Caliper, a Perkin-Elmer Co.). For 2 drug combination studies, transfer one drug 1.5 μl of DMSO+compound from each well in the DMSO Plate to each corresponding well on Media Plate using Rapidplate. Then, transfer another drug 1.5 μl to the medium plate.
Drug Addition to Cells, Cell Plate (1:10 dilution): Add 6 μl of media+compound directly to cells (54 μl of media on the cells already). Incubate 3 days at 37° C., 5% CO2 in an incubator that will not be opened often.
Day 5—Develop Plates, Thaw Cell Titer Glo Buffer at room temperature: Remove Cell Plates from 37° C. and equilibrate to room temperature for about 30 minutes. Add Cell Titer-Glo® Buffer to Cell Titer-Glo® Substrate (bottle to bottle). Add 30 μl Cell Titer-Glo® Reagent (Promega cat.# G7572) to each well of cells. Place on plate shaker for about 30 minutes. Read luminescence on Analyst HT Plate Reader (half second per well).
Cell viability assays and combination assays: Cells were seeded at 1000-2000 cells/well in 384-well plates for 16 h. On day two, nine serial 1:2 compound dilutions were made in DMSO in a 96 well plate. The compounds were further diluted into growth media using a Rapidplate® robot (Zymark Corp., Hopkinton, Mass.). The diluted compounds were then added to quadruplicate wells in 384-well cell plates and incubated at 37° C. and 5% CO2. After 4 days, relative numbers of viable cells were measured by luminescence using Cell Titer-Glo® (Promega) according to the manufacturer's instructions and read on a Wallac Multilabel Reader® (PerkinElmer, Foster City). EC50 values were calculated using Prism® 4.0 software (GraphPad, San Diego). […]

[1] = target: T1, estrogen receptor alpha (ESR1) (Homo sapiens, UniProt P03372); assay: Breast Cancer Cell ERa High Content Fluorescence Imaging Degradation Assay (Example 901); type: cell-based; settings: Table 1a; MCF7 breast cancer cells, 4 hours; plateau of the maximal effect; DMSO and Fulvestrant define 0% and 100% changes in ESR1
T1 construct: endogenous in cells; host or cells: MCF7 breast cancer cells
T1 sequence (P03372 1-595): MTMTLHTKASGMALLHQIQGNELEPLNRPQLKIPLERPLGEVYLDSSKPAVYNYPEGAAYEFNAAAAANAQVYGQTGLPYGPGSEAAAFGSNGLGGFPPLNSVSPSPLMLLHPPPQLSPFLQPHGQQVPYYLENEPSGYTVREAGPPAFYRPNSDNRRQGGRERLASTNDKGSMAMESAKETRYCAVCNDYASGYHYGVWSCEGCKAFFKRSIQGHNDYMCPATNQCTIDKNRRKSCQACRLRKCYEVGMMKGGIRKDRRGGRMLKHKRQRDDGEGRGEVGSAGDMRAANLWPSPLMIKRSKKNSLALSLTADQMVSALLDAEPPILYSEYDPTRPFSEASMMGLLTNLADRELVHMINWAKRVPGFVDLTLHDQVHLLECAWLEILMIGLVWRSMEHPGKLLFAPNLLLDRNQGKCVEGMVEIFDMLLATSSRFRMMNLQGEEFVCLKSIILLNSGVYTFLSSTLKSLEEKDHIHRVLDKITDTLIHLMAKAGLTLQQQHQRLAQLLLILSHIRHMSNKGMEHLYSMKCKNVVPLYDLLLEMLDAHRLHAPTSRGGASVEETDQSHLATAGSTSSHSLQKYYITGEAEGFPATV
Method: MCF7 breast cancer cells were seeded on day 1 at a density of 10,000 cells per well in 384 well poly-lysine coated tissue culture plate (Greiner # T-3101-4), in 50 μL/well RPMI (phenol red free), 10% FBS (Charcoal stripped), containing L-glutamine. On day 2, compounds were prepared at 2 compound source concentrations: 100 μM and 1 μM (ultimately to give 2 overlapping titration curves), in a Labcyte low dead volume plate, 10 μL/well, and 10 μL of DMSO in designated wells for backfill, and 5 μM Fulvestrant (control compound) in designated wells. Compounds and controls were dispensed using a Labcyte Echo acoustic dispenser to dispense compounds with a predefined serial dilution (1.8×, 10 point, in duplicate) and appropriate backfill and control compounds (final total volume transferred was 417.5 nL and compound dispense volume ranges from 2.5 nL to 417.5 nL; 0.84% DMSO (v/v) final), ultimately producing a concentration range from 0.05 nM to 835 nM. Cell plates were incubated at 37° C., for 4 hours. Fixation and permeabilization were carried out using a Biotek EL406 plate washer and dispenser as follows. Cells were fixed by addition of 15 μL of 16% paraformaldehyde (Electron Microscopy Sciences #15710-S) directly to the 50 μL cell culture medium in each well using the peristaltic pump 5 μL cassette on a Biotek EL406 (final concentration of formaldehyde was 3.7% w/v). Samples were incubated 30 minutes. Well contents was aspirated and 50 μL/well of Phosphate Buffered Saline (PBS) containing 0.5% w/v bovine serum albumen, 0.5% v/v Triton X-100 (Antibody Dilution Buffer) was added to each well. Samples were incubated for 30 minutes. Well contents were aspirated and washed 3 times with 100 μL/well of PBS. Immunofluorescence staining of estrogen receptor alpha (ESR1) was carried out using a Biotek EL406 plate washer and dispenser as follows. The well supernatant was aspirated from the wells and 25 μL/well of anti-ESR1 mAb (F10) (Santa Cruz sc-8002) diluted 1:1000 in Antibody Dilution Buffer was dispensed. Samples were incubated for 2 hours at room temperature. Samples were washed 4 times with 100 μL/well of PBS. 25 uL/well of secondary antibody solution (Alexafluor 488 conjugate anti-mouse IgG (LifeTechnologies #A21202) diluted 1:1000 and Hoechst 33342 1 μg/ml diluted in Antibody Dilution Buffer) were dispensed into each well. Samples were incubated for 2 hours at room temperature. Samples were washed 3 times with 100 μL/well of PBS using a Biotek EL406. Quantitative fluorescence imaging of ESR1 was carried out using a Cellomics Arrayscan V (Thermo). Fluorescence images of the samples (Channel 1: XF53 Hoechst (DNA stain); Channel 2: XF53 FITC (ESR1 stain)) were acquired using a Cellomics VTI Arrayscan using the Bioapplication “Compartmental Analysis” using the auto-exposure (based on DMSO control wells) setting “peak target percentile” set to 25% target saturation for both channels. Channel 1 (DNA stain) was used to define the nuclear region (Circ). Measurements of “Mean_CircAvgIntCh2”, which is the Alexafluor 488 fluorescence intensity (ESR1) within the nuclear region, was measured on a per cell basis and averaged over all the measured cells. Data analysis was carried out using Genedata Screener Software, with DMSO and 5 nM Fulvestrant treated samples being used to define the 0% and 100% changes in ESR1. The “Robust Fit” method was used to define the inflexion point of curve (EC50) and the plateau of the maximal effect (Sinf). Degradation data for exemplary Formula I compounds is reported as ER-alpha MCF7 HCS Sinf(%) values in Table 1.

SMILES | EC50 (MCF7 cells; Homo sapiens, MCF7, Table 1a) [nM] | ER-alpha MCF7 HCS (S inf) [1] [%] | EC50 (MCF7 cells; Table 1a) [nM]
C[C@@H]1Cc2c([nH]c3ccccc23)[C@@H](c2c(F)cc(C(O)C3CN(CCCF)C3)cc2F)N1CC(F)(F)F (stereo partly drawn) [Compound 109, (3,5-difluoro-4-((1R,3R)-3-methyl-2-(2,2,2-trifluoroethyl)-2,3,4,9-tetrahydro-1H-pyrido[3,4-b]indol-1-yl)phenyl)(1-(3-fluoropropyl)azetidin-3-yl)methanol] | 0.23 | −98.1 | –
C[C@@H]1Cc2c([nH]c3ccccc23)[C@@H](c2c(F)cc(C(O)C3CN(CCCF)C3)cc2F)N1CC(F)F (stereo partly drawn) [Compound 110] | 0.082 | −98.4 | –
C[C@@H]1Cc2c([nH]c3ccccc23)[C@@H](c2c(F)cc([C@H](O)C3CN(CCCF)C3)cc2F)N1CC(C)(C)F [Compound 111, (R)-(3,5-difluoro-4-((1R,3R)-2-(2-fluoro-2-methylpropyl)-3-methyl-2,3,4,9-tetrahydro-1H-pyrido[3,4-b]indol-1-yl)phenyl)(1-(3-fluoropropyl)azetidin-3-yl)methanol] | 0.066 | −95.97 | –
C[C@@H]1Cc2c([nH]c3ccccc23)[C@@H](c2ccc(C(O)C3CN(CCCF)C3)cc2F)N1CC(F)(F)CO (stereo partly drawn) [Compound 116, 2,2-difluoro-3-((1R,3R)-1-(2-fluoro-4-((1-(3-fluoropropyl)azetidin-3-yl)(hydroxy)methyl)phenyl)-3-methyl-1,3,4,9-tetrahydro-2H-pyrido[3,4-b]indol-2-yl)propan-1-ol] | 0.031 | −98.7 | –
C[C@@H]1Cc2c([nH]c3ccccc23)[C@@H](c2ccc(C(O)C3CN(CCCF)C3)cc2)N1CC(F)(F)CO (stereo partly drawn) [Compound 117, 2,2-difluoro-3-((1R,3R)-1-(4-((1-(3-fluoropropyl)azetidin-3-yl)(hydroxy)methyl)phenyl)-3-methyl-1,3,4,9-tetrahydro-2H-pyrido[3,4-b]indol-2-yl)propan-1-ol] | 0.066 | −100 | –

Continued, values first:

EC50 (MCF7 cells; Homo sapiens, MCF7, Table 1a) [nM] | ER-alpha MCF7 HCS (S inf) [1] [%] | EC50 (MCF7 cells; Table 1a) [nM] | SMILES
0.107 | −94.23 | – | C[C@@H]1Cc2c([nH]c3ccccc23)[C@@H](c2c(F)cc(C(O)C3CN(CCCF)C3)cc2F)N1C[C@@](C)(F)CO (stereo partly drawn) [Compound 107, (2R)-3-((1R,3R)-1-(2,6-difluoro-4-((1-(3-fluoropropyl)azetidin-3-yl)(hydroxy)methyl)phenyl)-3-methyl-1,3,4,9-tetrahydro-2H-pyrido[3,4-b]indol-2-yl)-2-fluoro-2-methylpropan-1-ol]
0.056 | −96.34 | – | C[C@@H]1Cc2c([nH]c3ccccc23)[C@@H](c2c(F)cc(C(O)C3CN(CCCF)C3)cc2F)N1C[C@](C)(F)CO (stereo partly drawn) [Compound 108, (2S)-3-((1R,3R)-1-(2,6-difluoro-4-((1-(3-fluoropropyl)azetidin-3-yl)(hydroxy)methyl)phenyl)-3-methyl-1,3,4,9-tetrahydro-2H-pyrido[3,4-b]indol-2-yl)-2-fluoro-2-methylpropan-1-ol]
0.05 | −99.15 | – | C[C@@H]1Cc2c([nH]c3ccccc23)[C@@H](c2c(F)cc([C@@H](O)C3CN(CCCF)C3)cc2F)N1CC(C)(C)F [Compound 112, (S)-(3,5-difluoro-4-((1R,3R)-2-(2-fluoro-2-methylpropyl)-3-methyl-2,3,4,9-tetrahydro-1H-pyrido[3,4-b]indol-1-yl)phenyl)(1-(3-fluoropropyl)azetidin-3-yl)methanol]
– | −91.41 | 0.884 | C[C@@H]1Cc2c([nH]c3ccc(F)cc23)[C@@H](c2c(F)cc(C(O)C3CN(CCCF)C3)cc2F)N1CC(C)(F)CO (stereo partly drawn) [Compound 113, 3-((1R,3R)-1-(2,6-difluoro-4-((1-(3-fluoropropyl)azetidin-3-yl)(hydroxy)methyl)phenyl)-6-fluoro-3-methyl-1,3,4,9-tetrahydro-2H-pyrido[3,4-b]indol-2-yl)-2-fluoro-2-methylpropan-1-ol]
